# Source: US10144742B2 (Millennium Pharmaceuticals, Inc., priority 2014, dated 2018)
# pIC50: −log10 of the molar value. Read-outs that look alike come from different tables or passages of the source.
# What was measured:
# [1] = tested on: experimental autoimmune encephalomyelitis (EAE); conditions: model of T-cell mediated autoimmune disorders; cited from earlier work
# activated T cells = conditions: cited from earlier work
# [2] = tested on: collagen-induced arthritis; conditions: cited from earlier work
# hNAMPT protein = hNAMPT protein (Homo sapiens (Human), UniProt P43490); assay: NAMPT enzyme assay (TR-FRET/HTRF, BodiPY ligand, anti 6His-Tb); assay type: binding; conditions: for pIC50: read-out: IC50; for inhibition at 1 µM: read-out: Percent Inhibition
# In short: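 TR-FRET binding assay in which His-tagged human NAMPT with anti-6His-Tb is displaced by compound from a BodiPY ligand, incubated 1 h at rt in the dark. Excitation was at 320 nm, with the 520/486 nm emission ratio read. IC50 was fitted from inhibition relative to DMSO controls.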
# PC3 cells = assay: PC3 growth inhibition (Cell-titer glo, 72 hours); assay type: cell-based; conditions: Homo sapiens, PC-3, PC3 cells, 72 hours, Cell-titer glo, read-out: Percent Inhibition (PC3 growth inhibition); for inhibition at 1.667 µM: compound concentration 1.667 μM
# In short: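 PC3 cells in RPMI1640 seeded overnight at 37 °C, 5% CO2, then exposed to compound diluted in AIM serum-free medium for 72 h. Viability by CellTiter-Glo luminescence vs DMSO controls; single-concentration % remaining viability (1 μM or 1.667 μM), or GI50/LD50 from curves.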
# [3] = NAMPT inhibition at compound concentration 1 μM
# [4] = NAMPT inhibition, IC50 range class
# hNAMPT protein, sequence (P43490 whole entry): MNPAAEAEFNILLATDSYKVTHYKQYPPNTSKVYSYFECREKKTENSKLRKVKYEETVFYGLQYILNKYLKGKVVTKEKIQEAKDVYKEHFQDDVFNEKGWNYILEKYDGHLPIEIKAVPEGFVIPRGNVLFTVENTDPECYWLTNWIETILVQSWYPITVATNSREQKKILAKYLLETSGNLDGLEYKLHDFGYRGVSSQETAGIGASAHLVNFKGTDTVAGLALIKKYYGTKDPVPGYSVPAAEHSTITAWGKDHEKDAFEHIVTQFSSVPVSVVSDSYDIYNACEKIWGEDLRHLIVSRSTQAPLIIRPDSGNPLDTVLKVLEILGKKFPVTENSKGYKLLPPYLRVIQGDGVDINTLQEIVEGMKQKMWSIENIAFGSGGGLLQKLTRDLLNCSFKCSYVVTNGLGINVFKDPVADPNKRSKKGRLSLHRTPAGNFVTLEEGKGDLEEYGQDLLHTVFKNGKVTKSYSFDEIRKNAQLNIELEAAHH
Compound,pIC50 (hNAMPT protein; NAMPT IC50 range class),inhibition at 1 µM (hNAMPT protein; compound concentration 1 μM) [%],inhibition at 1.667 µM (PC3 cells) [%],inhibition at 1 µM (hNAMPT protein; [3]) [%],pIC50 (hNAMPT protein; [4]),other results
O=C(/C=C/c1cccnc1)NCCCCC1CCN(C(=O)c2ccccc2)CC1 [FK866],,,,,,effect on manifestations of EAE [1]: ameliorated the manifestations of experimental autoimmune encephalomyelitis; effect on activated T cells (activated T cells): selectively block proliferation and induce apoptosis of activated T cells; efficacy in animal models of arthritis [2]: efficacious
"O=C(NCCCc1ncc[nH]1)c1ccc2nc(-c3ccc(F)cc3)c(-c3cccc(OC(F)(F)F)c3)nc2c1 [Compound I-350, 2-(4-fluorophenyl)-N-[3-(1H-imidazol-2-yl)propyl]-3-[3-(trifluoromethoxy)phenyl]quinoxaline-6-carboxamide]",6.30 to 7.00,86,2,,,
"CC(C)Oc1nc2ccc(C(=O)NCCc3cncn3C)cc2nc1-c1ccc(F)cc1 [Compound I-424, 3-(4-fluorophenyl)-2-isopropoxy-N-[2-(1-methyl-1H-imidazol-5-yl)ethyl]quinoxaline-6-carboxamide]",,,1,76,6.30 to 7.00,
"CN1CCCC(COc2nc3ccc(C(=O)NCCCc4ncc[nH]4)cc3nc2-c2ccc(F)cc2)C1 (stereo not drawn) [Compound I-510, 3-(4-fluorophenyl)-N-[3-(1H-imidazol-2-yl)propyl]-2-[(1-methylpiperidin-3-yl)methoxy]quinoxaline-6-carboxamide]",,,2,98,> 7.00,
"O=C(NCCCc1cccnc1)c1ccc2nc(N3CCC(O)CC3)c(-c3ccc(F)cc3)nc2c1 [Compound I-25, 3-(4-fluorophenyl)-2-(4-hydroxypiperidin-1-yl)-N-[3-(pyridin-3-yl)propyl]quinoxaline-6-carboxamide]",> 7.00,98,2,,,
"O=C(NCCCc1cccnc1)c1ccc2nc(-c3ccc(F)cc3)c(-c3ccc(F)cc3)nc2c1 [Compound I-32, 2,3-bis(4-fluorophenyl)-N-[3-(pyridin-3-yl)propyl]quinoxaline-6-carboxamide]",6.30 to 7.00,78,,,,inhibition at 1 µM (PC3 cells; compound concentration 1 μM): -5%
